Test results taken from patent US11116802B2, “Extract effective in treating drug addiction and preparation method therefor” (GUANGXI JIUFU BIOTECHNOLOGY CO., LTD, priority 2016, dated 2021).

How the values were obtained:
[1] = system: sleep time of mice with pentobarbital sodium; assay: Sleep time with pentobarbital sodium; type: in vivo, KM mice; conditions: estazolam 2 mg/kg; pentobarbital sodium 50 mg/kg 45 min after administration
Protocol: 40 KM mice (female:male 1:1) were fastened for 12 hrs, but allowed to free access to water. The mice were randomly divided into 4 groups, including a blank control group, a group with low-dose Agriolima agrestis extract (0.4 g/kg) prepared in the present invention, a group with high-dose Agriolima agrestis extract (0.8 g/kg) prepared in the present invention, and a positive control group (estazolam 2 mg/kg). Each group of mice was administered at the above dosage, and the blank control group was administered with the same volume of normal saline. After 45 minutes, each mouse was given 50 mg/kg of pentobarbital sodium, and then the sleep time of each group of mice was recorded (where the time at which the righting reflex disappeared after the administration was taken as the sleep onset time of the mice, and the duration from the time at which the righting reflex disappeared to the time at which the righting reflex returned was taken as the sleep time).

[2] = system: morphine-induced excitability in mice; assay: Morphine-induced excitability (spontaneous activity recorder); type: in vivo, KM mice
Protocol: 40 KM mice (female:male 1:1) were fastened for 12 hrs, but allowed to free access to water. The mice were randomly divided into 4 groups, including a blank control group, a group with low-dose Agriolima agrestis extract (0.4 g/kg) prepared in the present invention, a group with high-dose Agriolima agrestis extract (0.8 g/kg) prepared in the present invention, and a positive control group (estazolam 2 mg/kg). Each group of mice was placed in a YLS-1A multifunctional small animal spontaneous activity recorder. After 5 minutes of accommodation, the number of spontaneous activities of the mice before administration was measured, and the recording time was 10 min. Each group of mice was administered at the above dosage, and the blank control group was administered by oral gavage with the same volume of normal saline. […] After 15 minutes, the mice were placed in the recorder to observe and record the number of activities of the mice within 10 min.

[3] = system: amphetamine-induced excitability in mice; assay: Amphetamine-induced excitability (spontaneous activity recorder); type: in vivo, KM mice
Protocol: 40 KM mice (female:male 1:1) were fastened for 12 hrs, but allowed to free access to water. The mice were randomly divided into 4 groups, including a blank control group, a group with low-dose Agriolima agrestis extract (0.4 g/kg) prepared in the present invention, a group with high-dose Agriolima agrestis extract (0.8 g/kg) prepared in the present invention, and a positive control group (estazolam 2 mg/kg). Each group of mice was placed in a YLS-1A multifunctional small animal spontaneous activity recorder. After 5 minutes of accommodation, the number of spontaneous activities of the mice before administration was measured, and the recording time was 10 min.
Each group of mice was administered by oral gavage at the above dosage, and the blank control group was administered with the same volume of normal saline. Each mouse was intraperitoneally injected with amphetamine (8 mg/kg) 30 min after administration. After 15 minutes, the mice were placed in the recorder to observe and record the number of activities of the mice within 10 min.

morphine-dependent mice = assay: Jumps of morphine-dependent mice upon naloxone-precipitated withdrawal; type: in vivo, KM mice; conditions: methadone 20 mg/kg, naloxone 8 mg/kg 1 hr after administration
Protocol: (§1) 50 KM mice (female:male 1:1) were randomized into 5 groups. Group (1) was a blank control group, and the mice were subcutaneously injected with normal saline. […] Each group was given a different treatment. Group (1), that is, the blank control group, was given the same volume of normal saline. […] Group (3), that is, the positive control group, was given 20 mg/kg of methadone. Groups (4) and (5), that is, groups with low and high doses of Agriolima agrestis extract prepared in the present invention, were given Agriolima agrestis extract at a dosage of 0.4 g/kg and 0.8 g/kg respectively. Each group of mice was administered for consecutive 3 days. The mice were allowed to free access to water and food. 1 hrs after administration on the first and third days of treatment, naloxone (8 mg/kg) was given for precipitation respectively. The jump reaction of the mice in each group within 30 minutes and the changes of body weight before and after precipitation were observed.

[4] = Difference in body weight of mice before and after naloxone precipitation; type: in vivo, KM mice; conditions: morphine-dependent mice, methadone 20 mg/kg
Protocol: as §1

[5] = Difference in body weight of rats before and after naloxone precipitation; type: in vivo, Sprague-Dawley rats; conditions: morphine-dependent rats, methadone 20 mg/kg, 1 h after precipitation
Protocol: (§2) 50 Sprague-Dawley rats (female:male 1:1) were randomized into 5 groups. Group (1) was a blank control group, and the rats were subcutaneously injected with normal saline. […] Each group was given a different treatment. Group (1), that is, the blank control group, was given the same volume of normal saline. […] Group (3), that is, the positive control group, was given 20 mg/kg of methadone. Groups (4) and (5), that is, groups with low and high doses of Agriolima agrestis extract prepared in the present invention, were given Agriolima agrestis extract at a dosage of 0.3 g/kg and 0.6 g/kg respectively. Each group of rats was administered for consecutive 3 days. The rats were allowed to free access to water and food. 45 minutes after administration on the first and third days of treatment, naloxone (5 mg/kg) was given for precipitation respectively. The withdrawal response of the rats within 30 minutes and the changes of body weight before and after precipitation (1 h) were observed.

morphine-dependent rats = assay: Naloxone-precipitated withdrawal symptom scores in morphine-dependent rats; type: in vivo, Sprague-Dawley rats; conditions: methadone 20 mg/kg, naloxone 5 mg/kg 45 min after administration, response within 30 min
Protocol: as §2

Sprague-Dawley rats = assay: Physical dependence test: naloxone-precipitated withdrawal response after 7 days of increasing doses; type: in vivo; conditions: morphine hydrochloride s.c. twice a day, 5 mg/kg to 60 mg/kg, naloxone 5 mg/kg on day 8, within 30 min
Protocol: The morphine control group was injected subcutaneously with morphine hydrochloride twice a day. […] The Agriolima agrestis extract group was administered twice a day by oral gavage with increasing dose. The dosage was increased daily from […] to 3.0 g/kg and continuously administered until the 7th day. The negative control group was given the same volume of vegetable oil daily, and the administration time and frequency were the same as those in the Agriolima agrestis extract group. […]

[6] = baseline of estazolam 2 mg/kg group, recording time 10 min

For `Clc1ccc2c(c1)C(c1ccccc1)=NCc1nncn1-2` [estazolam], the “Sleep time of mice” value [1] was 66.22 ± 13.77 min, the Activities before administration [2, 6] was 171.2 ± 38.94 counts/min and the Activities after administration ([2]; estazolam 2 mg/kg, morphine 10 mg/kg i.p. 30 min after administration, recorded 15 min later within 10 min) was 67.9 ± 40.31 counts/min. The Activities before administration [3, 6] was 183.7 ± 32.99 counts/min and the Activities after administration ([3]; estazolam 2 mg/kg oral gavage, amphetamine 8 mg/kg i.p. 30 min after administration, recorded 15 min later within 10 min) was 83.0 ± 40.14 counts/min.

For `CCC(=O)C(CC(C)N(C)C)(c1ccccc1)c1ccccc1` (centres unmarked) [methadone], the “Jumps upon precipitated withdrawal, Day 1” value (morphine-dependent mice; day 1) was 25.1 ± 6.9 jumps/30 min, the “Jumps upon precipitated withdrawal, Day 3” value (morphine-dependent mice; day 3) was 22.9 ± 6.81 jumps/30 min and the “Difference in body weight (before precipitation − after precipitation), Day 1” value ([4]; day 1) was 0.22 ± 0.19 g. The “Difference in body weight (before precipitation − after precipitation), Day 3” value ([4]; day 3) was 0.46 ± 0.23 g, the “Difference in body weight (before precipitation − after precipitation), Day 1” value ([5]; day 1) was 15.6 ± 6.39 g and the “Difference in body weight (before precipitation − after precipitation), Day 3” value ([5]; day 3) was 2.6 ± 2.75 g. For the same molecule, the “Naloxone-precipitated withdrawal symptom score, Day 1” value (morphine-dependent rats; day 1 of treatment) was 49.35 ± 14.41 and the “Naloxone-precipitated withdrawal symptom score, Day 3” value (morphine-dependent rats; day 3 of treatment) was 35.6 ± 18.73.

`CN1CC[C@]23c4c5ccc(O)c4O[C@H]2[C@@H](O)C=C[C@H]3[C@H]1C5.Cl` [Morphine, morphine hydrochloride] showed a Withdrawal response score (Sprague-Dawley rats) of 76.9 ± 14.53.
